Measured values: patent US6773702B2, “Use of combretastatin A4 and its prodrugs as an immune enhancing therapy” (OXiGENE, Inc., priority 2000, dated 2004)

Legend:
[1] = system: BN7005-H1D2 colon cancer cells; assay: Tumor growth with IL-18/IFN-γ vaccination plus CA4P and/or L-NAME (FIG. 6); format: in vivo, rat; details: L-NAME by gavage 48 mg/rat + vaccination with IL-18/IFN-γ producing tumor cells
Method: FIG. 6 illustrates enhancement of the therapeutic effect of vaccination with IL-18/IFN-γ producing tumor transfectant […] cells by concurrent treatment with low dose combretastatin-A4 prodrug and/or L-NAME. Mean tumor volume±SEM is indicated. Significance of differences compared to the PBS control was evaluated by the Student's t test.
Four groups of 6 rats each were inoculated intrahepatically with 1×10^5 wild type colon cancer cells (BN7005-H1D2) on day 0. Drug treatment was initiated on day 7, when the tumor was macroscopically visible as a small nodule, and was repeated 5 days a week. CA4-P was administered i.p. at a dose of 5 mg/kg and L-NAME by gavage at a dose of 48 mg/rat. Vaccination was given twice i.p. on day 10.and 17 with 2×10^6 tumor cells producing IL-18 and IFN-γ, respectively. No drug treatment was given on the day of vaccination and the day after. On day 28 all animals were laparotomized and tumor diameters measured (the longest diameter (a) and the one perpendicular to the first (b) and tumor volume calculated according to the formula 0.4×a×b×b.
Referring to FIG. 6, wild-type (BN7005-H1D2) colon cancer cells were inoculated intrahepatically and combretastatin A4 prodrug treatment began daily on day 7 when the tumors were macroscopically visible. L-NAME, a well known NO inhibitor and effective antitumor agent, was also administered daily. On day 10 and 17 vaccination occurred using BN7005-H1D2 cells transfected with IL-18/IFN-gamma. […] One likely explanation was that both L-NAME and Combretastatin A4 were doing the same thing; i.e. inhibiting the production of proinflammatory cytokines that cause immune suppression.

[2] = system: colon carcinoma H1D2-WT cells; assay: Intrahepatic growth of colon carcinoma H1D2-WT, tumor volume after 4 weeks (Table 2); format: in vivo, rat; details: no CA4-P; L-NAME gavage; with immunization
Method: Table 2 is a summary of intrahepatic growth of colon carcinoma H1D2-WT cells treated with low dose CA4P alone or in combination with immunomodulatory gene therapy, and with or without additional inhibitor. Tumor growth was initiated by inoculation beneath the liver capsule with 1×10^5 in vitro cultured BN7005-H1D2 wild type cells suspended in 50 μl RPMI medium. Drug administration (CA4P, L-NAME, Indomethacin) was initiated after 7-8 days when the tumor was macroscopically visible. CA4P was given intraperitoneally, 5 days a week. L-NAME was given by gavage twice a week on the day of immunization and the day after. Indomethacin was given by gavage 48 h after vaccination at a dose of 0.33 mg/kg. Immunization was performed by intraperitoneal administration on day 10 and day 17 using BN7005-H1D2 cells transfected with IL-18 or a mixture of IL-18 and IL-12 transfectants (2-3×10^6 viable cells per rat).
Wild-type (BN7005-H1D2) colon cancer cells (1×10^5 cells) were inoculated intrahepatically and CA4P drug treatment (2 and 5 mg/kg) began daily when the tumors were macroscopically visible. On day 10 and 17, vaccinations were administered intraperitoneally using […] cells transfected with IL-18 transfected cells or mixtures of IL-18 and IL-12 transfected cells (2-3×10^6 viable cells per rat). L-NAME and Indomethacin were also administered by gavage 48 h after vaccination at a dose of 0.33 mg/kg.

[3] = system: spleen cells of H1D2-WT tumor-bearing rat; assay: In vitro proliferative response of spleen cells from a tumor-bearing rat treated with CA4 plus immunotherapy (FIG. 4); format: in vivo; details: for T cell proliferative response: CA4 2 mg/kg + active immunotherapy
Method: FIG. 4 illustrates the enhanced in vitro immune proliferative response (cpm) of spleen cells isolated from (H1D2-WT) a tumor-bearing rat previously treated in vivo with a combination of active immunomodulatory therapy and CA4 (2 mg/kg, 6 days a week). Spleen cells were tested 9 weeks after tumor inoculation when tumor sizes was 0.9 cm^3. LO signifies spleen cells containing adherent macrophages, whereas L1 represents the same population depleted of adherent macrophages. A subset of each cell sample was treated with either medium (Med) or L-NAME (1.5 mg/ml).
While the anti-tumor properties of CA4 and CA4P are very different, the present invention embraces the discovery that a low dose of either compound is capable of enhancing the immune responsiveness of a tumor host. FIG. 4 illustrates the in vitro immune proliferation of spleen cells isolated from a tumor-bearing rat previously subjected to treatment with a combination of CA4 (2 mg/kg) and active immunotherapy. The rat was killed 9 weeks after initiation of intrahepatic tumor growth, at which point the tumor had grown to a size of 0.9 cm^3. Control rats receiving immunotherapy alone were euthanized 5 weeks earlier due to the development of large tumor burdens (>5 cm3).
A tumor-bearing rat (H1D1-WT) was treated in vivo with weekly immunizations of IL-18 transfected tumor cells (H1D1-IL-18), in addition to CA4 treatment (2 mg/kg) 6 days a week. Due to the inherent insolubility of CA4, […] (0.9 cm^3 tumor) following […] of growth, at which point the untreated control rats were all dead with large tumor burdens (>5 cm^3) and would not be expected to show an immune response at such a late stage. Both unseparated spleen cells (L0) and nonadherent spleen cells (L1), depleted of most macrophages by plastic adherence (as in Example 2), were tested for a proliferative response to H1D2-IL18 tumor stimulator cells in the absence or presence of the NO-synthase inhibitor L-NAME.

[4] = cited from earlier work
[5] = system: BN7005-H1D2 colon cancer cells; assay: Comparison of CA4 and CA4P on BN7005-H1D2 tumor growth, alone or with vaccination (FIG. 5); format: in vivo, rat
Method: FIGS. 5A AND 5B illustrate a comparison of the therapeutic effect of Combretastatin A4 and Combretastatin A4 Prodrug (2 mg/kg) on tumor growth (BN7005-H1D2) in vivo as a sole therapy or in combination with therapeutic vaccination (IL-18 tumor transfectants). Results are represented as mean tumor volume (FIG. 5A) or as median tumor volume (FIG. 5B) 31 days after tumor initiation.
A comparison was also made of relative effect of CA4 and CA4P administration in vivo with regard to tumor inhibitory effects when used as sole therapy and when combined with immunomodulatory gene therapy. […] A subset of these animals were subjected to regular vaccinations autologous IL-18 and IL-12-transfected tumor cells, respectively.
A comparison has been made of the effect of CA4 and CA4 prodrug with regard to tumor inhibitory effects when used as sole therapy and when combined with immunomodulatory gene therapy. As represented in FIG. 5, wild-type (BN7005-H1D2) colon cancer cells were inoculated intrahepatically and treatment with CA4 and CA4P began on day 7 (2 mg/kg 6 days a week), when the tumors were macroscopically visible. On day 9, 16 and 23, vaccinations occurred using BN7005-H1D2 cells transfected with ILI8 and IL-12, respectively.

Row | SMILES | Enhancement of immune stimulated gene therapy [1] | Tumor volume after 4 weeks, Mean [2] [mm^3] | Tumor volume after 4 weeks, Median [2] [mm^3] | Tumor size ([3]; 9 weeks after initiation of intrahepatic tumor growth, CA4 2 mg/kg + active immunotherapy (controls >5 cm3)) [cm^3] | T cell proliferative response ([3]; non-adherent T cells (L1), 9 weeks) | T cell proliferative response ([3]; unseparated spleen cells (L0) in the presence of L-NAME in vitro) | T cell proliferative response ([3]; unseparated spleen cells (L0), 9 weeks after tumor initiation) [cpm] | Solubility in water [4] | Tumor inhibitory effect ([5]; 2 mg/kg 6 days a week as sole therapy) | Tumor inhibitory effect ([5]; 2 mg/kg combined with vaccination (IL-18 and IL-12 transfected tumor cells))
1 | COC(=O)[C@@H](N)CCCNC(=N)N[N+](=O)[O-] [L-NAME, reference compound] | effective enhancers of immune stimulated gene therapy | 1285 | 879 |  |  |  |  |  |  | 
2 | COc1ccc(/C=C\c2cc(OC)c(OC)c(OC)c2)cc1O [CA4, Combretastatin A4] |  |  |  | 0.9 | 86,000 cpm | 44,000 cpm | 9000 | very limited | no significant effect as sole therapy | significant tumor inhibitory effects
